Data as given in patent US9695155B2, “Herbicidal substituted pyrimidinyloxy benzene compounds” (E. I. DU PONT DE NEMOURS AND COMPANY, priority 2013, dated 2017).

Legend:
wheat [1] = experiment: Test A preemergence; assay type: in vivo, Triticum aestivum
Description: (§1) Seeds of plant species selected from barnyardgrass (Echinochloa crus-galli), kochia (Kochia scoparia), ragweed (common ragweed, Ambrosia elatior), Italian ryegrass (Lolium multiflorum), large (Lg) crabgrass (Digitaria sanguinalis), giant foxtail (Setaria faberii), morningglory (Ipomoea spp.), pigweed (Amaranthus retroflexus), velvetleaf (Abutilon theophrasti), wheat (Triticum aestivum), and corn (Zea mays) were planted into a blend of loam soil and sand and treated preemergence with a directed soil spray using test chemicals formulated in a non-phytotoxic solvent mixture which included a surfactant.
(§2) At the same time, plants selected from these crop and weed species and also blackgrass (Alopecurus myosuroides), and galium (catchweed bedstraw, Galium aparine) were planted in pots containing the same blend of loam soil and sand and treated with postemergence applications of test chemicals formulated in the same manner. Plants ranged in height from 2 to 10 cm and were in the one- to two-leaf stage for the postemergence treatment. Treated plants and untreated controls were maintained in a greenhouse for approximately 10 days, after which time all treated plants were compared to untreated controls and visually evaluated for injury. Plant response ratings, summarized in Table A, are based on a 0 to 100 scale where 0 is no effect and 100 is complete control. A dash (-) response means no test result.

pigweed [2] = experiment: Test A preemergence; assay type: in vivo, Amaranthus retroflexus
In short: (§3)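 Greenhouse pot test, loam/sand soil. Formulation: non-phytotoxic solvent mix plus surfactant. Pre: directed spray onto soil after sowing. Post: plants at 1–2 leaf, 2–10 cm. Rated visually vs untreated controls at ~10 d, 0 (no effect) to 100 (complete control).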

corn [3] = experiment: Test A postemergence; assay type: in vivo, Zea mays
In short: as §3

wheat [4] = experiment: Test A postemergence; assay type: in vivo, Triticum aestivum
In short: as §3

barnyardgrass [5] = experiment: Test B flooded paddy test; assay type: in vivo, Echinochloa crus-galli; settings: Flood, 250 g ai/ha; 0 to 100 scale where 0 is no effect and 100 is complete control
Method: (§4) Plant species in the flooded paddy test selected from rice (Oryza sativa), sedge, umbrella (small-flower umbrella sedge, Cyperus difformis), (Heteranthera limosa), and barnyardgrass (Echinochloa crus-galli) were grown to the 2-leaf stage for testing. At time of treatment, test pots were flooded to 3 cm above the soil surface, treated by application of test compounds directly to the paddy water, and then maintained at that water depth for the duration of the test. Treated plants and controls were maintained in a greenhouse for 13 to 15 days, after which time all species were compared to controls and visually evaluated. Plant response ratings, summarized in Table B, are based on a scale of 0 to 100 where 0 is no effect and 100 is complete control. A dash (-) response means no test result.

barnyardgrass [6] = experiment: Test A preemergence; assay type: in vivo, Echinochloa crus-galli
Description: as §1, §2

large (Lg) crabgrass [7] = experiment: Test A preemergence; assay type: in vivo, Digitaria sanguinalis
In short: as §3

corn [8] = experiment: Test A preemergence; assay type: in vivo, Zea mays
Description: as §1, §2

velvetleaf [9] = experiment: Test A postemergence; assay type: in vivo, Abutilon theophrasti
Description: as §1, §2

giant foxtail [10] = experiment: Test A preemergence; assay type: in vivo, Setaria faberii
In short: as §3

morningglory [11] = experiment: Test A preemergence; assay type: in vivo, Ipomoea spp.
Description: as §1, §2

pigweed [12] = experiment: Test A postemergence; assay type: in vivo, Amaranthus retroflexus
In short: as §3

sedge, umbrella = experiment: Test B flooded paddy test; assay type: in vivo, Cyperus difformis; settings: Flood, 250 g ai/ha; 0 to 100 scale where 0 is no effect and 100 is complete control
Method: as §4

giant foxtail [13] = experiment: Test A postemergence; assay type: in vivo, Setaria faberii
Description: as §1, §2

Heteranthera limosa = experiment: Test B flooded paddy test; assay type: in vivo; settings: Flood, 250 g ai/ha; 0 to 100 scale where 0 is no effect and 100 is complete control
Method: as §4

rice = experiment: Test B flooded paddy test; assay type: in vivo, Oryza sativa; settings: Flood, 250 g ai/ha; 0 to 100 scale where 0 is no effect and 100 is complete control
Method: as §4

large (Lg) crabgrass [14] = experiment: Test A postemergence; assay type: in vivo, Digitaria sanguinalis
Description: as §1, §2

morningglory [15] = experiment: Test A postemergence; assay type: in vivo, Ipomoea spp.
In short: as §3

velvetleaf [16] = experiment: Test A preemergence; assay type: in vivo, Abutilon theophrasti
Description: as §1, §2

barnyardgrass [17] = experiment: Test A postemergence; assay type: in vivo, Echinochloa crus-galli
Description: as §1, §2

[18] = 125 g ai/ha, 0 to 100 scale where 0 is no effect and 100 is complete control
[19] = 500 g ai/ha, 0 to 100 scale, 0 no effect, 100 complete control, approx. 10 days
[20] = 500 g ai/ha, 0 to 100 scale, 0 no effect, 100 complete control
[21] = 1000 g ai/ha, 0 to 100 scale, 0 no effect, 100 complete control, approx. 10 days
[22] = 1000 g ai/ha, 0 to 100 scale, 0 no effect, 100 complete control

Row | SMILES | Wheat plant response rating (wheat [1]; [19]) | Pigweed plant response rating (pigweed [2]; [19]) | Plant response rating, Corn (corn [3]; [18]) | Plant response rating, Corn (corn [3]; [20]) | Plant response rating, Wheat (wheat [4]; [18]) | Plant response rating, Wheat (wheat [4]; [20]) | Plant response rating, Barnyardgrass (barnyardgrass [5]) | Barnyardgrass plant response rating (barnyardgrass [6]; [19]) | Crabgrass, Large plant response rating (large (Lg) crabgrass [7]; [19]) | Corn plant response rating (corn [8]; [19]) | Plant response rating, Velvetleaf (velvetleaf [9]; [18]) | Plant response rating, Velvetleaf (velvetleaf [9]; [20]) | Foxtail, Giant plant response rating (giant foxtail [10]; [19]) | Plant response rating, Pigweed (pigweed [12]; [18]) | Plant response rating, Pigweed (pigweed [12]; [20]) | Plant response rating, Sedge, Umbrella (sedge, umbrella) | Plant response rating, Foxtail, Giant (giant foxtail [13]; [18]) | Plant response rating, Foxtail, Giant (giant foxtail [13]; [20]) | Plant response rating, Ducksalad (Heteranthera limosa) | Plant response rating, Rice (rice) | further results
1 | FC(F)(F)c1cnc(Oc2ccccc2-n2ccc(C(F)(F)F)n2)nc1 [Compound 4] | 0 | 0 | 0 | 0 | 0 | 0 | 0 | 0 | 0 | 0 | 0 | 0 | 0 | 0 | 20 | 0 | 0 | 0 | 0 | 0 | Wheat plant response rating (wheat [1]; [18]): 0; Pigweed plant response rating (pigweed [2]; [18]): 0; Barnyardgrass plant response rating (barnyardgrass [6]; [18]): 0; Crabgrass, Large plant response rating (large (Lg) crabgrass [7]; [18]): 0; Corn plant response rating (corn [8]; [18]): 0; Foxtail, Giant plant response rating (giant foxtail [10]; [18]): 0; Morningglory plant response rating (morningglory [11]; [18]): 0; Morningglory plant response rating (morningglory [11]; [19]): 0; Plant response rating, Crabgrass, Large (large (Lg) crabgrass [14]; [18]): 0; Plant response rating, Crabgrass, Large (large (Lg) crabgrass [14]; [20]): 0; Plant response rating, Morningglory (morningglory [15]; [18]): 0; Plant response rating, Morningglory (morningglory [15]; [20]): 0; Velvetleaf plant response rating (velvetleaf [16]; [18]): 0; Velvetleaf plant response rating (velvetleaf [16]; [19]): 0; Plant response rating, Barnyardgrass (barnyardgrass [17]; [18]): 0; Plant response rating, Barnyardgrass (barnyardgrass [17]; [20]): 0
2 | Cc1cnc(Oc2ccccc2-n2cc(Br)cn2)nc1 [Compound 9] | 0 | 100 | 20 | 50 | 0 | 30 | 0 | 100 | 100 | 20 | 100 | 100 | 90 | 80 | 90 | 60 | 30 | 90 | 80 | 0 | Wheat plant response rating (wheat [1]; [18]): 0; Pigweed plant response rating (pigweed [2]; [18]): 100; Barnyardgrass plant response rating (barnyardgrass [6]; [18]): 30; Crabgrass, Large plant response rating (large (Lg) crabgrass [7]; [18]): 90; Corn plant response rating (corn [8]; [18]): 0; Foxtail, Giant plant response rating (giant foxtail [10]; [18]): 80; Morningglory plant response rating (morningglory [11]; [18]): 0; Morningglory plant response rating (morningglory [11]; [19]): 0; Plant response rating, Crabgrass, Large (large (Lg) crabgrass [14]; [18]): 30; Plant response rating, Crabgrass, Large (large (Lg) crabgrass [14]; [20]): 80; Plant response rating, Morningglory (morningglory [15]; [18]): 20; Plant response rating, Morningglory (morningglory [15]; [20]): 30; Velvetleaf plant response rating (velvetleaf [16]; [18]): 80; Velvetleaf plant response rating (velvetleaf [16]; [19]): 100; Plant response rating, Barnyardgrass (barnyardgrass [17]; [18]): 30; Plant response rating, Barnyardgrass (barnyardgrass [17]; [20]): 90
3 | Cc1cnc(Oc2ccccc2-n2cc(Cl)cn2)nc1 [Compound 15] | 0 | 100 | 0 | 20 | 0 | 10 | 20 | 100 | 100 | 0 | 90 | 100 | 100 | 70 | 100 | 85 | 10 | 70 | 75 | 20 | Wheat plant response rating (wheat [1]; [18]): 0; Pigweed plant response rating (pigweed [2]; [18]): 90; Barnyardgrass plant response rating (barnyardgrass [6]; [18]): 20; Crabgrass, Large plant response rating (large (Lg) crabgrass [7]; [18]): 40; Corn plant response rating (corn [8]; [18]): 0; Foxtail, Giant plant response rating (giant foxtail [10]; [18]): 30; Morningglory plant response rating (morningglory [11]; [18]): 0; Morningglory plant response rating (morningglory [11]; [19]): 0; Plant response rating, Crabgrass, Large (large (Lg) crabgrass [14]; [18]): 10; Plant response rating, Crabgrass, Large (large (Lg) crabgrass [14]; [20]): 60; Plant response rating, Morningglory (morningglory [15]; [18]): 10; Plant response rating, Morningglory (morningglory [15]; [20]): 20; Velvetleaf plant response rating (velvetleaf [16]; [18]): 60; Velvetleaf plant response rating (velvetleaf [16]; [19]): 100; Plant response rating, Barnyardgrass (barnyardgrass [17]; [18]): 0; Plant response rating, Barnyardgrass (barnyardgrass [17]; [20]): 60
4 | N#Cc1cnn(-c2ccccc2Oc2ncc(Cl)cn2)c1 [Compound 33] | 0 | 100 | 0 | 100 | 0 | 90 | 10 | 70 | 100 | 0 | 100 | 100 | 100 | 100 | 100 | 20 | 70 | 100 | 80 | 0 | Plant response rating, Wheat (wheat [1]; [18]): 0; Plant response rating, Pigweed (pigweed [2]; [18]): 100; Plant response rating, Barnyardgrass (barnyardgrass [6]; [18]): 0; Plant response rating, Crabgrass, Large (large (Lg) crabgrass [7]; [18]): 90; Plant response rating, Corn (corn [8]; [18]): 0; Plant response rating, Foxtail, Giant (giant foxtail [10]; [18]): 90; Plant response rating, Crabgrass, Large (large (Lg) crabgrass [14]; [18]): 20; Plant response rating, Crabgrass, Large (large (Lg) crabgrass [14]; [20]): 80; Plant response rating, Velvetleaf (velvetleaf [16]; [18]): 50; Velvetleaf plant response rating (velvetleaf [16]; [19]): 100; Plant response rating, Barnyardgrass (barnyardgrass [17]; [18]): 0; Plant response rating, Barnyardgrass (barnyardgrass [17]; [20]): 100
5 | Clc1cnc(Oc2ccccc2-n2cc(Cl)nn2)nc1 [Compound 224] | – | – | – | – | – | – | – | – | – | – | – | – | – | – | – | – | – | – | – | – | Wheat plant response rating (wheat [1]; [21]): 60; Pigweed plant response rating (pigweed [2]; [21]): 100; Plant response rating, Corn (corn [3]; [22]): 50; Plant response rating, Wheat (wheat [4]; [22]): 60; Barnyardgrass plant response rating (barnyardgrass [6]; [21]): 100; Crabgrass, Large plant response rating (large (Lg) crabgrass [7]; [21]): 100; Corn plant response rating (corn [8]; [21]): 40; Plant response rating, Velvetleaf (velvetleaf [9]; [22]): 100; Foxtail, Giant plant response rating (giant foxtail [10]; [21]): 100; Morningglory plant response rating (morningglory [11]; [21]): 90; Plant response rating, Pigweed (pigweed [12]; [22]): 100; Plant response rating, Foxtail, Giant (giant foxtail [13]; [22]): 90; Plant response rating, Crabgrass, Large (large (Lg) crabgrass [14]; [22]): 80; Plant response rating, Morningglory (morningglory [15]; [22]): 100; Velvetleaf plant response rating (velvetleaf [16]; [21]): 100; Plant response rating, Barnyardgrass (barnyardgrass [17]; [22]): 90
